In assay [1] the target is T1, Ubiquitin carboxyl-terminal hydrolase 1/WD repeat-containing protein 48 (Homo sapiens, UniProt O94782+Q8TAF3). As to the kind of experiment: Inhibition of human USP1/UAF1 complex using Ub-Rho as substrate by qHTS assay. Type of assay: protein-complex assay. A general note: qHTS replaces the single test concentration by a dilution series.
The target in assay [2] is Ubiquitin carboxyl-terminal hydrolase 1/WD repeat-containing protein 48 (Homo sapiens, UniProt O94782). As to the kind of experiment: Inhibition of human USP1/UAF1 complex using Ub-Rho as substrate preincubated for 30 mins followed by substrate addition by fluorescence-based HTS assay. Type of assay: protein-complex assay.
The next assay deals with T2, DNA polymerase iota (Homo sapiens, UniProt Q9UNA4).
T2 sequence (Q9UNA4 whole entry): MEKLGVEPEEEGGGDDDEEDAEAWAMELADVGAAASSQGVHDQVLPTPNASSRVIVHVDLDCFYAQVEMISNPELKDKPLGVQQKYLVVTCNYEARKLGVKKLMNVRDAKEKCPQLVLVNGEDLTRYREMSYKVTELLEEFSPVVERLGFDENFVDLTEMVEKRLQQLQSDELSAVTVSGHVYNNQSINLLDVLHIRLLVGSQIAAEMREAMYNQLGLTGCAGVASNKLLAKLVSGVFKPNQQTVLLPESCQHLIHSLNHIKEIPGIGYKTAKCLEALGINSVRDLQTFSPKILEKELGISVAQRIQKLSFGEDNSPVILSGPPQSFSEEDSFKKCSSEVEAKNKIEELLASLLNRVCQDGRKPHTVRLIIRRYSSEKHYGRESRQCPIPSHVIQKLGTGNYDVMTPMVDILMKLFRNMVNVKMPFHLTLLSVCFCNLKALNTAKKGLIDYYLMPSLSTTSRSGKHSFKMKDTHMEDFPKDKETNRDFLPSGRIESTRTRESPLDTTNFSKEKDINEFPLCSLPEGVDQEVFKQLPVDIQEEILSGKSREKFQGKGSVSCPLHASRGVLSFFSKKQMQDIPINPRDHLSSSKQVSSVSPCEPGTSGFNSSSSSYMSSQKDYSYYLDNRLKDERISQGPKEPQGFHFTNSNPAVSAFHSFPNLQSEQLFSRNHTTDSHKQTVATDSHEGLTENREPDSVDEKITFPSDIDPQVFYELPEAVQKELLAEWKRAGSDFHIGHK
As to the kind of experiment: Inhibition of human recombinant DNA polymerase iota expressed in Baculovirus expression system using TAMRA/BHQ-2-labeled primer/template measured at 2 to 6 mins by reporter-strand displacement assay.

For another assay, the target named is T3, DNA polymerase eta (Homo sapiens, UniProt Q9Y253).
T3 sequence (Q9Y253 whole entry): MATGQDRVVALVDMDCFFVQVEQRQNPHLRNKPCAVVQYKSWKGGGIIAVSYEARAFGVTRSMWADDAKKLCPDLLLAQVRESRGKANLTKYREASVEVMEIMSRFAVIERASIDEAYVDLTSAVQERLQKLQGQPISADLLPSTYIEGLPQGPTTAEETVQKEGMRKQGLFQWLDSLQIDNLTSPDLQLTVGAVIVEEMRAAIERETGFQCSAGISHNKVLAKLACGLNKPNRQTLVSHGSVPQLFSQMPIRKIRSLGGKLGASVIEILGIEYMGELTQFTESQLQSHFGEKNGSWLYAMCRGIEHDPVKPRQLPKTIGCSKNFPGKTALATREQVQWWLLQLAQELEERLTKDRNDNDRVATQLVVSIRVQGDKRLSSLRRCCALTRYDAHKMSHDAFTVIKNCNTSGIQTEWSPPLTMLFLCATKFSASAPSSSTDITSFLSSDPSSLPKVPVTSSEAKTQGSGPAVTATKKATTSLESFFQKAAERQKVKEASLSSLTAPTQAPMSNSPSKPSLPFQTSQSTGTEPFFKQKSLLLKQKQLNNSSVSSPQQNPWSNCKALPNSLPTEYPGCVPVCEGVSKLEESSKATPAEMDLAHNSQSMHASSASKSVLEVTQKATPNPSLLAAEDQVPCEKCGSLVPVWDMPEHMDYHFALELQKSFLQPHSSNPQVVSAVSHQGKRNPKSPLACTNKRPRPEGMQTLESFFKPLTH
As to the kind of experiment: Inhibition of human recombinant DNA polymerase eta expressed in Baculovirus expression system using TAMRA/BHQ-2-labeled primer/template measured at 2 to 6 mins by reporter-strand displacement assay.

The nature of assay [3]: Growth inhibition of human MDA-MB-231 cells after 72 hrs by MTT assay. To be noted: MDA-MB-231, 72 h. Type of assay: functional. Background: Formazan colour is commonly taken as a measure of viable cells.
Assay [4] concerns the target T1, Ubiquitin carboxyl-terminal hydrolase 1/WD repeat-containing protein 48. As to the kind of experiment: Inhibition of USP1/UAF1 complex in human H596 cells assessed as potentiation of cisplatin-induced cell killing by measuring cisplatin GI50 at 1:4 cisplatin to compound ratio pretreated for 48 hrs followed by addition of fresh growth medium measured after 5 to 10 days by colony forming assay (reference value: 486 nM). Type of assay: cell-based.

Assay [5] shares this target. As to the kind of experiment: Inhibition of USP1/UAF1 complex in HEK293T cells assessed as decrease in ability of DNA polymerase eta to bypass UV-induced DNA lesions after 24 hrs by strand specific PCR-based competitive replication and adduct bypass assay. Type of assay: cell-based. The note with it: HEK-293T, concentration not given here.
In the next assay the target is T4, DNA polymerase kappa (Homo sapiens, UniProt Q9UBT6).
T4 sequence (Q9UBT6 whole entry): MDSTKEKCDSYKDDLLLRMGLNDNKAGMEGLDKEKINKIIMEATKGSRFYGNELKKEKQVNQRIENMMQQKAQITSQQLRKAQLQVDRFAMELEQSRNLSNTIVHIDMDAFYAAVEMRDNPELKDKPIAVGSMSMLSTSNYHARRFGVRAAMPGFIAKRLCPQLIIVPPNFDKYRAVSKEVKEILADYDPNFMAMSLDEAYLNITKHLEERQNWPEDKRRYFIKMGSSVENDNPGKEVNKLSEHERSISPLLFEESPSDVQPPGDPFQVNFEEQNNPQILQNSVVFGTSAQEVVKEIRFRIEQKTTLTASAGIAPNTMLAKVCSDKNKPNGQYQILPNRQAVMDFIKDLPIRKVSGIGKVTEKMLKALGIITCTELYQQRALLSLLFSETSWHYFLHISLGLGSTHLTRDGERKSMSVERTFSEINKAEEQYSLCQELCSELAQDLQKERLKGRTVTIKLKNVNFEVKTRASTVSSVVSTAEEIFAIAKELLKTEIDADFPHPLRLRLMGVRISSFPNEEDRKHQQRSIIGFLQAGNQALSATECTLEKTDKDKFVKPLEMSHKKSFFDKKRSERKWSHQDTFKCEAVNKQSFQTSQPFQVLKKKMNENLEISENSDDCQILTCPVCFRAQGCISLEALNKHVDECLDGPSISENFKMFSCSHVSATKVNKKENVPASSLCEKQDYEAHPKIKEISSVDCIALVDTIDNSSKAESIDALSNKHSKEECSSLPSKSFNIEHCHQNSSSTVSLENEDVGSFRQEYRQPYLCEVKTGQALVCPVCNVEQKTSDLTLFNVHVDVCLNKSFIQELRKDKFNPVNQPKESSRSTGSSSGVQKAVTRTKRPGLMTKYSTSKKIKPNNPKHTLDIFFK
As to the kind of experiment: Inhibition of human DNA polymerase kappa (19 to 526 residues)-mediated TLS past acrolein derived ring-opened reduced form of gamma-HOPdG lesions preincubated for 15 mins followed by DNA substrate addition measured after 30 mins in presence of dCTP and dGTP by radioactive gel-based primer extension assay.

pIC50: −log10 of the molar value.

What is called pIC50 is the negative decadic logarithm of the IC50, by convention in mol/L. In general, GI50 refers to the concentration at which growth is held to half of that of the control. The term inhibition denotes the drop in the measured response relative to a control, in per cent.

T1 sequence (O94782 whole entry): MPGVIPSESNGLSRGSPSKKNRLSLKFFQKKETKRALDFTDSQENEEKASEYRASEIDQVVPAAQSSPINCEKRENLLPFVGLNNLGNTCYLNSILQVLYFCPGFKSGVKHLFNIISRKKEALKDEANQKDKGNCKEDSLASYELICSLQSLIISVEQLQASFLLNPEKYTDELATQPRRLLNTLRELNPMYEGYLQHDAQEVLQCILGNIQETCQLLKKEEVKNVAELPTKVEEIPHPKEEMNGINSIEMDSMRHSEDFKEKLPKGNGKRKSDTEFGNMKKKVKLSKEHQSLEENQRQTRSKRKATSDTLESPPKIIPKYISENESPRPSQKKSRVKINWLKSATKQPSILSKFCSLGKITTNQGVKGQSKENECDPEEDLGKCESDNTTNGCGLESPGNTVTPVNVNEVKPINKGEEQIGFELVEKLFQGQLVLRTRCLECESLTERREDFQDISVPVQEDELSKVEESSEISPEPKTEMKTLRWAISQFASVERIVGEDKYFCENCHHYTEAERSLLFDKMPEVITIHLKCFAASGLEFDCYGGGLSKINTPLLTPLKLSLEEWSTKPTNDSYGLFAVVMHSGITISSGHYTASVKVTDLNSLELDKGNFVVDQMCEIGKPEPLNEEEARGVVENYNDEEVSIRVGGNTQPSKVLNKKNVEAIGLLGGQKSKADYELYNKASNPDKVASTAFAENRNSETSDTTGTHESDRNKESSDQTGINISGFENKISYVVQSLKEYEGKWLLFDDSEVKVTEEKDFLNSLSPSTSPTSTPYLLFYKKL
T1 sequence (Q8TAF3 whole entry): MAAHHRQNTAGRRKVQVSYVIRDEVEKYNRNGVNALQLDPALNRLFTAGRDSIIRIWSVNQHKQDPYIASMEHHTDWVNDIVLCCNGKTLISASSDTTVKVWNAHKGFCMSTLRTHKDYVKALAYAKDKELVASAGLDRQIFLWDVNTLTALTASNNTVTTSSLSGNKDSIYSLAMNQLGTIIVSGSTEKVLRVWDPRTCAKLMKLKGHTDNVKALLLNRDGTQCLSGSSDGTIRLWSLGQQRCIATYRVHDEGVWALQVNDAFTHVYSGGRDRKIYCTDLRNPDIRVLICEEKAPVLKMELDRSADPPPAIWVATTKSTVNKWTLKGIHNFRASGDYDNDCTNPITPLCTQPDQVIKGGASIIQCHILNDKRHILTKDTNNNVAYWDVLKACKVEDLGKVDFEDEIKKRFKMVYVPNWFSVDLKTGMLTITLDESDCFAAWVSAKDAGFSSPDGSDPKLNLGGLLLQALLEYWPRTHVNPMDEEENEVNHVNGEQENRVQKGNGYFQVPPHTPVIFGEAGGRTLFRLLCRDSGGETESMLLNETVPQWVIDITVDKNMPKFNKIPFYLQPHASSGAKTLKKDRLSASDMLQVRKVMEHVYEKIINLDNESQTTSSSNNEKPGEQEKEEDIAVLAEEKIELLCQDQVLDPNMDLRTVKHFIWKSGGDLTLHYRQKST
Sequence of Ubiquitin carboxyl-terminal hydrolase 1/WD repeat-containing protein 48 (Homo sapiens, UniProt O94782) (O94782 whole entry): as the sequence (O94782 whole entry) above
Sequence of Ubiquitin carboxyl-terminal hydrolase 1/WD repeat-containing protein 48 (Homo sapiens, UniProt O94782) (Q8TAF3 whole entry, further chain): as the sequence (Q8TAF3 whole entry) above

As to `CC(=O)c1c(O)c(C)c(O)c(Cc2c(O)c3c(c(C(=O)/C=C/c4ccccc4)c2O)OC(C)(C)C=C3)c1O` [ROTTLERIN], the negative-log IC50 (pIC50) in assay [1] was 5.10.

In assay [1], `O=c1[nH]c2ccccc2n1C1CCN(CCCC(c2ccc(F)cc2)c2ccc(F)cc2)CC1` [PIMOZIDE] gave a pIC50 of 5.70. Consider `O=C1c2ccccc2C(=O)C2OC(c3ccc(F)cc3)=NC12` (centres undefined), for which, in assay [2], the pIC50 was 6.06. Consider `O=c1oc2c(O)c(O)cc3c(=O)oc4c(O)c(O)cc1c4c23` [ELLAGIC ACID], for which the pIC50 at DNA polymerase iota and on DNA polymerase eta was 7.21 each time.

Take `Nc1nc(COC(=O)c2ccc([N+](=O)[O-])cc2)nc(Nc2ccccc2)n1`: the GI50 in assay [3] came to 10000 nM. `O=C(O)C1=CC(=C(c2ccc(O)c(C(=O)O)c2)c2ccc(O)c(C(=O)O)c2)C=CC1=O` [AURINTRICARBOXYLIC ACID]: the pIC50 on DNA polymerase iota and at DNA polymerase eta was 7.12 in each case.

`CC(C)(Sc1ccc(CCN(CCCCC2CCCCC2)C(=O)NC2CCCCC2)cc1)C(=O)O` [GW7647] showed a negative-log IC50 (pIC50) in assay [1] of 5.30.

For `Cc1ccc(Nc2nc(N)nc(COC(=O)c3ccc([N+](=O)[O-])cc3)n2)cc1`, in assay [3], the GI50 amounted to 10000 nM. `CN1CCN(CCCN2c3ccccc3Sc3ccc(C(F)(F)F)cc32)CC1` [TRIFLUOPERAZINE] showed a negative-log IC50 (pIC50) in assay [1] of 5.10. `Cc1cnc(-c2ccccc2C(C)C)nc1NCc1ccc(-n2ccnn2)cc1`: the GI50 in assay [4] was found to be 59 nM. In addition, the inhibition in assay [5] worked out at 31%. In the case of `CCOc1nc2cccc(C(=O)OC(C)OC(=O)OC3CCCCC3)c2n1Cc1ccc(-c2ccccc2-c2nnn[nH]2)cc1` (centres undefined) [CANDESARTAN CILEXETIL], the pIC50 at DNA polymerase kappa is 5.25.

(Values after ChEMBL document CHEMBL3853315, “Targeting the Translesion Synthesis Pathway for the Development of Anti-Cancer Chemotherapeutics” (J Med Chem, 2016).)
